“And” between values parts separate entries of the source, which are not always exact repeats. Identical values can stand only once. Inconclusive results and toxic doses are left out. Rule for the calls: active = survival T/C of 150% or more; inactive = T/C below 125% in these data.
System: P388 leukemia ip, CD2F1 mice, survival T/C
Experiment: NCI In Vivo Anticancer Drug Screen. Data for tumor model P388 Leukemia (intraperitoneal) in CD2F1 (CDF1) mice
Details: endpoint: median survival time, higher = longer survival
Method in brief: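 Mice carrying the transplanted tumor received test compound or vehicle. Survival was recorded in each group, and the value is the treated-group measurement divided by that of the vehicle-treated control group.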

[1] = dose: 60.0 mg/kg/injection, schedule: Q01DX005 (ip), vehicle: Klucel (hydroxypropylcellulose) (HPC)
[2] = dose: 100.0 mg/kg/injection, schedule: Q01DX009 (ip), vehicle: saline with Tween-80
[3] = dose: 200.0 mg/kg/injection, schedule: Q01DX009 (ip), vehicle: saline with Tween-80
[4] = dose: 60.0 mg/kg/injection, schedule: Q01DX005 (ip), vehicle: saline with Tween-80
[5] = dose: 120.0 mg/kg/injection, schedule: Q01DX005 (ip), vehicle: saline with Tween-80
[6] = dose: 240.0 mg/kg/injection, schedule: Q01DX005 (ip), vehicle: saline with Tween-80
[7] = dose: 50.0 mg/kg/injection, schedule: Q01DX009 (ip), vehicle: saline with Tween-80
[8] = dose: 25.0 mg/kg/injection, schedule: Q01DX009 (ip), vehicle: saline with Tween-80
[9] = dose: 50.0 mg/kg/injection, schedule: Q01DX005 (ip), vehicle: Klucel (hydroxypropylcellulose) (HPC)
[10] = dose: 50.0 mg/kg/injection, schedule: Q01DX005 (ip), vehicle: saline with Tween-80
[11] = dose: 100.0 mg/kg/injection, schedule: Q01DX005 (ip), vehicle: saline with Tween-80
[12] = dose: 200.0 mg/kg/injection, schedule: Q01DX005 (ip), vehicle: saline with Tween-80
[13] = dose: 100.0 mg/kg/injection, schedule: Q01DX005 (ip), vehicle: Klucel (hydroxypropylcellulose) (HPC)
[14] = dose: 200.0 mg/kg/injection, schedule: Q01DX005 (ip), vehicle: Klucel (hydroxypropylcellulose) (HPC)

Measured: T/C

CCOC(=O)C(=C\c1nncn1-c1ccccc1)/C=C(/O)c1ccccc1
inactive: dose: 15.0 mg/kg/injection, schedule: Q01DX005 (ip), vehicle: Klucel (hydroxypropylcellulose) (HPC) 97 % of control | dose: 30.0 mg/kg/injection, schedule: Q01DX005 (ip), vehicle: Klucel (hydroxypropylcellulose) (HPC) 93 % of control | [1] 87 % of control

c1ccc2c(c1)C1CCC2c2ccccc21
inactive: [2] 118 % of control | [3] 104 % of control | dose: 400.0 mg/kg/injection, schedule: Q01DX009 (ip), vehicle: saline with Tween-80 118 % of control

O=C(Cc1c[nH]c2ccccc12)Nc1nncs1
inactive: dose: 100.0 mg/kg/injection, schedule: Q04DX002 (ip), vehicle: saline with Tween-80 97 % of control | dose: 200.0 mg/kg/injection, schedule: Q04DX002 (ip), vehicle: saline with Tween-80 97 % of control | dose: 400.0 mg/kg/injection, schedule: Q04DX002 (ip), vehicle: saline with Tween-80 110 % of control

O=C1c2ccccc2OC2CCON12 (stereo not given)
inactive: dose: 50.0 mg/kg/injection, schedule: Q01DX009 (ip), vehicle: Klucel (hydroxypropylcellulose) (HPC) 100 % of control | dose: 100.0 mg/kg/injection, schedule: Q01DX009 (ip), vehicle: Klucel (hydroxypropylcellulose) (HPC) 100 % of control | dose: 200.0 mg/kg/injection, schedule: Q01DX009 (ip), vehicle: Klucel (hydroxypropylcellulose) (HPC) 116 % of control

O=C(Nc1ccc(CC2=NCCCN2)cc1)c1ccc(C(=O)Nc2ccc(CC3=NCCCN3)cc2)cc1
inactive: dose: 0.78 mg/kg/injection, schedule: Q01DX005 (ip), vehicle: saline with Tween-80 93 % of control | dose: 1.56 mg/kg/injection, schedule: Q01DX005 (ip), vehicle: saline with Tween-80 112 % of control

CC(=O)Nc1ccc(S(=O)(=O)Nc2c(N)[nH]c(=S)[nH]c2=O)cc1
inactive: [4] 97 % of control | [5] 98 % of control | [6] 97 % of control

O=c1c2cncnc2sc2nccn12
inactive: [4] 99 % of control | [5] 98 % of control | [6] 95 % of control

C=CCC(O)(C(F)(F)F)C(F)(F)F
inactive: [7] 105 % of control | [2] 103 % of control | [3] 115 % of control

O=C(O)c1ccc2c(=O)c(C(=O)O)c[nH]c2c1
inactive: dose: 50.0 mg/kg/injection, schedule: Q01DX009 (ip), vehicle: saline 100 % of control | dose: 100.0 mg/kg/injection, schedule: Q01DX009 (ip), vehicle: saline 96 % of control | dose: 200.0 mg/kg/injection, schedule: Q01DX009 (ip), vehicle: saline 103 % of control

N#CC1(OC2OC(CO)C(O)C(O)C2O)C=CC(O)C1 (stereo not given)
inactive: dose: 25.0 mg/kg/injection, schedule: Q01DX005 (ip), vehicle: saline 91 % of control | dose: 50.0 mg/kg/injection, schedule: Q01DX005 (ip), vehicle: saline 94 % of control | dose: 100.0 mg/kg/injection, schedule: Q01DX005 (ip), vehicle: saline 106 % of control

CN(C)c1ccc(C=C2C(=O)NC(=O)NC2=O)cc1
inactive: [8] 118 % of control | [7] 113 % of control | [2] 116 % of control | [3] 106 % of control

COc1ccc(C(=O)/C=C/c2ccc(OC)c(OC)c2OC)c(O)c1
inactive: dose: 100.0 mg/kg/injection, schedule: Q04DX003 (ip), vehicle: Klucel (hydroxypropylcellulose) (HPC) 99 % of control | dose: 200.0 mg/kg/injection, schedule: Q04DX003 (ip), vehicle: Klucel (hydroxypropylcellulose) (HPC) 99 % of control | dose: 400.0 mg/kg/injection, schedule: Q04DX003 (ip), vehicle: Klucel (hydroxypropylcellulose) (HPC) 90 % of control

O=C(O)c1cc(-c2ccccc2)[nH]c1-c1ccccc1
inactive: dose: 12.5 mg/kg/injection, schedule: Q01DX009 (ip), vehicle: saline with Tween-80 103 % of control | [8] 106 % of control | [7] 90 % of control

C=C1C(=O)OC2/C=C(CO)/C=C\C3OC3(C)CC(OC(=O)/C(=C/C)CO)C12 (stereo not given)
inactive: dose: 12.5 mg/kg/injection, schedule: Q01DX005 (ip), vehicle: Klucel (hydroxypropylcellulose) (HPC) 106 % of control and 97 % of control | dose: 25.0 mg/kg/injection, schedule: Q01DX005 (ip), vehicle: Klucel (hydroxypropylcellulose) (HPC) 99 % of control and 103 % of control and 116 % of control | [9] 109 % of control and 111 % of control

CN(C)c1nc(N(C)C)nc([N+]23CN4CN(CN(C4)C2)C3)n1
inactive: [7] 114 % of control | [2] 108 % of control | [3] 114 % of control

O=C1NC(=O)C2(OC3c4ccccc4C=CN3C3=C2C(=O)CCC3)C(=O)N1 (stereo not given)
inactive: [10] 94 % of control | [11] 94 % of control | [12] 92 % of control

CC(=O)NC1=CC(=Nc2ccc(N(C)C)cc2)C=CC1=O
inactive: dose: 3.12 mg/kg/injection, schedule: Q01DX005 (ip), vehicle: saline 114 % of control | dose: 6.25 mg/kg/injection, schedule: Q01DX005 (ip), vehicle: saline 112 % of control | dose: 12.5 mg/kg/injection, schedule: Q01DX005 (ip), vehicle: saline 102 % of control

CNC(=S)N/N=C\C(C)=N/N1CCCCCC1
inactive: dose: 100.0 mg/kg/injection, schedule: Q04DX002 (ip), vehicle: saline 97 % of control | dose: 200.0 mg/kg/injection, schedule: Q04DX002 (ip), vehicle: saline 101 % of control | dose: 400.0 mg/kg/injection, schedule: Q04DX002 (ip), vehicle: saline 93 % of control

CN(C)n1c(O)c(N=O)sc1=S
inactive: [9] 96 % of control | [13] 95 % of control

COc1ccc2c(c1)SC1=NNC(=O)CN12
inactive: [1] 89 % of control | dose: 120.0 mg/kg/injection, schedule: Q01DX005 (ip), vehicle: Klucel (hydroxypropylcellulose) (HPC) 89 % of control | dose: 240.0 mg/kg/injection, schedule: Q01DX005 (ip), vehicle: Klucel (hydroxypropylcellulose) (HPC) 91 % of control

c1ccc(-c2cnn3c(-c4ccccc4)cnnc23)cc1
inactive: [9] 99 % of control | [13] 99 % of control | [14] 99 % of control

O=C1Nc2ccc3cn[nH]c3c2C1=O
inactive: [10] 98 % of control | [11] 101 % of control | [12] 105 % of control

C1COCCCOCCCOCCCC2(CCCOCCCOC1)CO2
inactive: [10] 110 % of control | [11] 86 % of control | [12] 109 % of control

CCOc1n[nH]c(-c2ccc(Cl)cc2Cl)n1
inactive: dose: 100.0 mg/kg/injection, schedule: Q01DX001 (ip), vehicle: Klucel (hydroxypropylcellulose) (HPC) 102 % of control | dose: 200.0 mg/kg/injection, schedule: Q01DX001 (ip), vehicle: Klucel (hydroxypropylcellulose) (HPC) 100 % of control | dose: 400.0 mg/kg/injection, schedule: Q01DX001 (ip), vehicle: Klucel (hydroxypropylcellulose) (HPC) 101 % of control

CC1(C)CC(NCCN)=CC(=S)N1
inactive: [9] 98 % of control | [13] 98 % of control | [14] 104 % of control

C=CC12COC(=O)C(=C)C1C1OC(=O)C(=C)C1CC2O (stereo not given)
inactive: dose: 0.75 mg/kg/injection, schedule: Q01DX009 (ip), vehicle: saline 120 % of control | dose: 1.5 mg/kg/injection, schedule: Q01DX009 (ip), vehicle: saline 123 % of control | dose: 3.0 mg/kg/injection, schedule: Q01DX009 (ip), vehicle: saline 118 % of control | dose: 6.0 mg/kg/injection, schedule: Q01DX009 (ip), vehicle: saline 120 % of control

O=C(Nc1cc(-c2ccccc2)[nH]n1)c1ccccc1
inactive: [4] 103 % of control | [5] 106 % of control | [6] 100 % of control

NC(CCCCNC(=O)OCCCCCOC(=O)NCCCCC(N)C(=O)O)C(=O)O (stereo not given)
inactive: dose: 50.0 mg/kg/injection, schedule: Q01DX009 (ip), vehicle: suspension in saline 95 % of control | dose: 100.0 mg/kg/injection, schedule: Q01DX009 (ip), vehicle: suspension in saline 106 % of control | dose: 200.0 mg/kg/injection, schedule: Q01DX009 (ip), vehicle: suspension in saline 104 % of control

CC(C(=O)c1ccc(O)cc1)C1(O)C(=O)Nc2ccccc21 (stereo not given)
inactive: [10] 98 % of control | [11] 100 % of control | [12] 101 % of control

Cc1nn(-c2ccccc2)c2oc3ccccc3c(=O)c12
inactive: dose: 60.0 mg/kg/injection, schedule: Q01DX005 (ip), vehicle: saline 92 % of control | dose: 120.0 mg/kg/injection, schedule: Q01DX005 (ip), vehicle: saline 100 % of control | dose: 240.0 mg/kg/injection, schedule: Q01DX005 (ip), vehicle: saline 96 % of control

Reference: PubChem BioAssay AID330 (DTP/NCI, 2004)
